According to patent US8586743B2, “Labeling reagents and methods of their use” (Life Technologies Corporation, priority 2007, dated 2013):

Assays:
[1] = buffer, pH 8.6
Method: (§1) Samples were incubated at room temperature in the indicated solution.
(§2) 2-(6-amino-3-iminio-4,5-disulfonato-3H-xanthen-9-yl)benzoate, comprising an SDP ester was prepared and compared to commercially available 2-(6-amino-3-iminio-4,5-disulfonato-3H-xanthen-9-yl)benzoate comprising a succinimidyl ester (SE) and 2-(6-amino-3-iminio-4,5-disulfonato-3H-xanthen-9-yl)benzoate comprising a TFP for hydrolytic stability in 25 mM Pi buffer pH 8.6.

[2] = Hydrolysis half-life by HPLC (percent hydrolysis) at room temperature
Method: as §1, §2

[3] = phosphate buffer with imidazole, pH 8.6

| SMILES | half-life (hydrolytic stability) [1] [h] | half-life ([2]; DMSO) [h] | half-life ([2]; HEPES buffer, pH 8.2) [h] | half-life ([2]; Tris buffer with NaN3, pH 8.6) [h] | half-life ([2]; Tris buffer, pH 7) [h] | half-life ([2]; Tris buffer, pH 8.6) [h] | half-life ([2]; borate buffer, pH 8.6) [h] | half-life [2, 3] [h] | half-life ([2]; phosphate buffer, pH 7.2) [h] | half-life ([2]; phosphate buffer, pH 8.6) [h] | half-life ([2]; water) [h] |
| --- | --- | --- | --- | --- | --- | --- | --- | --- | --- | --- | --- |
| N=c1ccc2c(-c3ccc(C(=O)Oc4c(Cl)cc(S(=O)(=O)O)cc4Cl)cc3C(=O)O)c3ccc(N)c(S(=O)(=O)O)c3oc-2c1S(=O)(=O)O [Compound 102] | 28 | 384 | 159 | 1.58 | 1020 | 77 | 3.5 | 0.633 | 245 | 28 | 504 |
| N=c1ccc2c(-c3cc(C(=O)Oc4c(Cl)cc(S(=O)(=O)O)cc4Cl)ccc3C(=O)O)c3ccc(N)c(S(=O)(=O)O)c3oc-2c1S(=O)(=O)O [Compound 104] | – | – | – | – | – | – | – | – | – | 17 | – |
| CC1(C)C(/C=C/C=C/C=C2\N(CCCS(=O)(=O)O)c3ccc(S(=O)(=O)[O-])cc3C2(C)CCCCCC(=O)Oc2c(Cl)cc(S(=O)(=O)O)cc2Cl)=[N+](CCCS(=O)(=O)O)c2ccc(S(=O)(=O)O)cc21 (stereo not shown) [Compound 114] | – | – | – | – | – | – | – | – | – | 1.7 | – |
| N=c1ccc2c(-c3ccc(C(=O)Oc4c(F)c(F)cc(F)c4F)cc3C(=O)O)c3ccc(N)c(S(=O)(=O)O)c3oc-2c1S(=O)(=O)O [Compound 120, reference compound] | – | – | 6.5 | < 0.0167 | 13.9 | 2.32 | < 0.0833 | < 0.0333 | 2.88 | 1.3 | – |
| CC1(C)C(/C=C/C=C/C=C2\N(CCCS(=O)(=O)O)c3ccc(S(=O)(=O)[O-])cc3C2(C)CCCCCC(=O)ON2C(=O)CCC2=O)=[N+](CCCS(=O)(=O)O)c2ccc(S(=O)(=O)O)cc21 (stereo not shown) [Compound 121, reference compound] | – | – | – | – | – | – | – | – | – | 1.75 | – |
